Test results taken from patent US20230103631A1, “PEPTIDES AS SELECTIVE GIP RECEPTOR AGONISTS” (Sanofi, priority 2020, published 2023).
*1 amine or outer side, *2 acyl side, *3 side chain or, on linkers, in order; H or OH if unused. Where a SMILES comes first, the peptide text is derived from it. Side-chain parts run from the residue outwards. [ ]: non-standard residue; d: D form. The star is where a group is joined. C20 diacid = O=C(O)CCCCCCCCCCCCCCCCCCC(=O)*; C18 diacid = O=C(O)CCCCCCCCCCCCCCCCC(=O)*; γGlu = O=C(O)[C@H](CCC(=O)[*:2])N[*:1]; AEEA = NCCOCCOCC(=O)O; Aib = CC(C)(N)C(=O)O; Sar = CNCC(=O)O

Assays:
[1] = Dynamic light scattering (DLS) for the assessment of physical stability; type: physicochemical; conditions: DLS buffer system A
Description: A monochromatic and coherent light beam (laser) is used to illuminate the liquid sample. Dynamic Light Scattering (DLS) measures light scattered from particles (1 nm≤radius≤1 μm) that undergo Brownian motion. This motion is induced by collisions between the particles and solvent molecules, that themselves are moving due to their thermal energy. The diffusional motion of the particles results in temporal fluctuations of the scattered light (R. Pecora, Dynamic Light Scattering: Applications of Photon Correlation Spectroscopy, Plenum Press, 1985).
The scattered light intensity fluctuations are recorded and transformed into an autocorrelation function. By fitting the autocorrelation curve to an exponential function, the diffusion coefficient D of the particles in solution can be derived. The diffusion coefficient is then used to calculate the hydrodynamic radius Rh (or apparent Stokes radius) through the Stokes-Einstein equation assuming spherical particles. This calculation is defined in ISO 13321 and ISO 22412 (International Standard ISO13321 Methods for Determination of Particle Size Distribution Part 8: Photon Correlation Spectroscopy, International Organisation for Standardisation (ISO) 1996; International Standard ISO22412 Particle Size Analysis—Dynamic Light Scattering, International Organisation for Standardisation, 2008).
In case of polydisperse samples, the autocorrelation function is the sum of the exponential decays corresponding to each of the species. The temporal fluctuations of the scattered light can then be used to determine the size distribution profile of the particle fraction or family. The first order result is an intensity distribution of scattered light as a function of the particle size. The intensity distribution is naturally weighted according to the scattering intensity of each particle fraction or family. For biological materials or polymers, the particle scattering intensity is proportional to the square of the molecular weight. Thus, small amount of aggregates/agglomerates or presence or a larger particle species can dominate the intensity distribution. However, this distribution can be used as a sensitive detector for the presence of large material in the sample.
The DLS technique produces distributions with inherent peak broadening. The polydispersity index % Pd is a measure of the width of the particle size distribution and is calculated by standard methods described in ISO13321 and ISO22412 [International Standard ISO13321 Methods for Determination of Particle Size Distribution Part 8: Photon Correlation Spectroscopy, International Organisation for Standardisation (ISO) 1996; International Standard ISO22412 Particle Size Analysis—Dynamic Light Scattering, International Organisation for Standardisation (ISO) 2008].
Solutions from solid samples were prepared in buffer systems (see below) with a target concentration of 300 μM compound based on the previously determined % purity.
DLS buffer system A) 20 mM phosphate buffer pH 7.4
DLS buffer system B) 8 mM phosphate buffer pH 7.4, 14 mg/ml propylene glycol, 5.5 mg/ml phenol
DLS buffer system C) 100 mM phosphate buffer pH 7.4, 2.7 mg/ml m-cresol Solutions were filtered through 0.22 μm pore size and filled into sterilized glass containers under laminar flow conditions. For every peptide solution, the apparent hydrodynamic radius (Rh), the corresponding Scattering Intensity (I), and the Mass Contribution (M) were determined as an average over 3-6 replicates from the intensity distribution of the scattered light averaging only high-quality measurements. Relative standard deviations (RSD) for these parameters were calculated from the same number of replicates. […]

[2] = target: T1, human GIP receptor (hGIPR) (Homo sapiens, UniProt P48546); experiment: Binding assay, displacement of [125I]GIP from HEK-293 membranes expressing GIPR; conditions: [125I]GIP displacement
T1 sequence (P48546 22-466): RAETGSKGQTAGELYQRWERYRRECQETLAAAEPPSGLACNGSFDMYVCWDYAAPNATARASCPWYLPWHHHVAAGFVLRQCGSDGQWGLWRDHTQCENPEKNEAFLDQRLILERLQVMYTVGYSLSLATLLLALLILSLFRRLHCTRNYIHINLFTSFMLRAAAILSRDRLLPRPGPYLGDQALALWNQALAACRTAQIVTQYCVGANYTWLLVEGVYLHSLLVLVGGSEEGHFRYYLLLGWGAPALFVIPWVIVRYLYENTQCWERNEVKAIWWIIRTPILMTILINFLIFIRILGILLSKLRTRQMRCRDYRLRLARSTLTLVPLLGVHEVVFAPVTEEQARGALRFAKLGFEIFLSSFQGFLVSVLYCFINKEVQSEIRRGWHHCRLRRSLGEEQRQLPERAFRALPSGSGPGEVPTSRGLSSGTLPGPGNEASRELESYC
Experimental: HEK-293 cells recombinantly over-expressing GIPR or GLP-1R were grown to 50% confluency, washed with warm 1×PBS (Gibco) and detached in HEPES/EDTA-buffer (100 mM HEPES pH 7.5, 5 mM EDTA). Cells were harvested by centrifugation at 4° C. and 3000×g and the pellets were stored at −80° C. until further processing.
After thawing on ice, pellets were resuspended in HEPES/EDTA-buffer and homogenized on ice for 1 min using Ultra-Turray T25. After subsequent sonification the cell debris was removed by centrifugation at 1000×g and 4° C. Supernatants were then ultra-centrifuged at 100000×g and 4° C. under vacuum for 30 min. Pellets were resuspended in HEPES/EDTA/NaCl-buffer (20 mM HEPES, 1 mM EDTA, 150 mM NaCl; add 1 Complete Mini Protease inhibitor cocktail to 10 ml buffer) and protein content was determined via BCA-Protein assay.

[3] = target: human GLP-1 receptor (hGLP-1R) (Homo sapiens, UniProt P43220); experiment: cAMP HTRF assay, HEK-293 cell line over-expressing human GLP-1 receptor; type: cell-based; conditions: HEK-293, cAMP, 0% HSA
human GLP-1 receptor (hGLP-1R), sequence (P43220 24-463): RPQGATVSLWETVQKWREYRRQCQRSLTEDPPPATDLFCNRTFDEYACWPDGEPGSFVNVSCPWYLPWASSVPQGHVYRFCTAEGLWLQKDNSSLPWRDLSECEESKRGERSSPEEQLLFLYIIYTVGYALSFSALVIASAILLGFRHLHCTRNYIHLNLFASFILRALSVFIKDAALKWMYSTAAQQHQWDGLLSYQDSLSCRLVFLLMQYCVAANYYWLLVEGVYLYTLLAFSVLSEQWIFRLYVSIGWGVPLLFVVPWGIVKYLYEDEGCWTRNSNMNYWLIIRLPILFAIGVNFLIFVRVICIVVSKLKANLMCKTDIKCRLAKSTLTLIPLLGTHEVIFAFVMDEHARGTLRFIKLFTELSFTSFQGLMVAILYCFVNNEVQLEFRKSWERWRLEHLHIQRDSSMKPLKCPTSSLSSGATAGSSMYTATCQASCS
In short: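 Thawed HEK-293 cells over-expressing human GLP-1R (5000 cells/well) in HBSS/20 mM HEPES buffer, with 0.1% HSA where stated, incubated with compound for 30 min at room temperature. Generated cAMP quantified by HTRF.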

| SMILES | I and SD (Scattering Intensity) ([1]; 0 weeks) [%] | M and SD (Mass Contribution) ([1]; 0 weeks) [%] | apparent Rh and SD ([1]; 0 weeks) [nm] | I and SD (Scattering Intensity) ([1]; 4 weeks storage at 40° C.) [%] | M and SD (Mass Contribution) ([1]; 4 weeks storage at 40° C.) [%] | apparent Rh and SD ([1]; 4 weeks storage at 40° C.) [nm] | IC50 [2] [pM] | EC50 [3] [pM] |
| --- | --- | --- | --- | --- | --- | --- | --- | --- |
| CC[C@H](C)[C@H](NC(=O)[C@H](CCCNC(=N)N)NC(=O)[C@H](CC(=O)O)NC(=O)[C@H](CCCCNC(=O)CNC(=O)CNC(=O)CNC(=O)CC[C@H](NC(=O)CCCCCCCCCCCCCCCCC(=O)O)C(=O)O)NC(=O)C(C)(C)NC(=O)[C@@H](NC(=O)[C@H](CO)NC(=O)[C@H](CC(C)C)NC(=O)[C@H](CC(=O)O)NC(=O)[C@H](CO)NC(=O)[C@@H](NC(=O)[C@H](Cc1ccccc1)NC(=O)[C@@H](NC(=O)CNC(=O)[C@H](CCC(=O)O)NC(=O)C(C)(C)NC(=O)[C@@H](N)Cc1ccc(O)cc1)[C@@H](C)O)[C@@H](C)CC)[C@@H](C)CC)C(=O)N[C@@H](Cc1c[nH]cn1)C(=O)N[C@@H](CCC(N)=O)C(=O)NC(C)(C)C(=O)N[C@@H](CCC(=O)O)C(=O)N[C@@H](Cc1ccccc1)C(=O)N[C@H](C(=O)N[C@@H](CCC(=O)O)C(=O)N[C@@H](Cc1c[nH]c2ccccc12)C(=O)N[C@@H](CC(C)C)C(=O)N[C@@H](CC(C)C)C(=O)N[C@@H](C)C(=O)N[C@@H](CCC(N)=O)C(=O)NCC(=O)N1CCC[C@H]1C(=O)N[C@@H](CO)C(=O)N[C@@H](CO)C(=O)NCC(=O)N[C@@H](C)C(=O)N1CCC[C@H]1C(=O)N1CCC[C@H]1C(=O)N1CCC[C@H]1C(=O)N[C@@H](CO)C(N)=O)[C@@H](C)CC [SEQ ID NO: 5, H2N-Y-Aib-E-G-T-F-I-S-D-I-S-I-Aib-K[{Gly}3-gGlu-C18OH]-D-R-I-H-Q-Aib-E-F-I-E-W-I-L-A-Q-G-P-S-S-G-A-P-P-P-S-NH2] (H-Y[Aib]EGTFISDLSI[Aib]K([Gly-Gly-Gly-γGlu-C18 diacid])DRIHQ[Aib]EFIEWLLAQGPSSGAPPPS-NH2) | 76 ± 2 | 100 ± 0 | 2.05 ± 0.04 | 89 ± 3 | 100 ± 0 | 1.99 ± 0.03 | 100 | > 10000 |
| CC[C@H](C)[C@H](NC(=O)[C@H](CCCNC(=N)N)NC(=O)[C@H](CC(=O)O)NC(=O)[C@H](CCCCNC(=O)CN(C)C(=O)CN(C)C(=O)CN(C)C(=O)CC[C@H](NC(=O)CCCCCCCCCCCCCCCCC(=O)O)C(=O)O)NC(=O)C(C)(C)NC(=O)[C@@H](NC(=O)[C@H](CO)NC(=O)[C@H](CC(C)C)NC(=O)[C@H](CC(=O)O)NC(=O)[C@H](CO)NC(=O)[C@@H](NC(=O)[C@H](Cc1ccccc1)NC(=O)[C@@H](NC(=O)CNC(=O)[C@H](CCC(=O)O)NC(=O)C(C)(C)NC(=O)[C@@H](N)Cc1ccc(O)cc1)[C@@H](C)O)[C@@H](C)CC)[C@@H](C)CC)C(=O)N[C@@H](Cc1c[nH]cn1)C(=O)N[C@@H](CCC(N)=O)C(=O)NC(C)(C)C(=O)N[C@@H](CCC(=O)O)C(=O)N[C@@H](Cc1ccccc1)C(=O)N[C@H](C(=O)N[C@@H](CCC(=O)O)C(=O)N[C@@H](Cc1c[nH]c2ccccc12)C(=O)N[C@@H](CC(C)C)C(=O)N[C@@H](CC(C)C)C(=O)N[C@@H](C)C(=O)N[C@@H](CCC(N)=O)C(=O)NCC(=O)N1CCC[C@H]1C(=O)N[C@@H](CO)C(=O)N[C@@H](CO)C(=O)NCC(=O)N[C@@H](C)C(=O)N1CCC[C@H]1C(=O)N1CCC[C@H]1C(=O)N1CCC[C@H]1C(=O)N[C@@H](CO)C(N)=O)[C@@H](C)CC [SEQ ID NO: 6, H2N-Y-Aib-E-G-T-F-I-S-D-I-S-I-Aib-K[{N-MeGly}3-gGlu-C18OH]-D-R-I-H-Q-Aib-E-F-I-E-W-I-L-A-Q-G-P-S-S-G-A-P-P-P-S-NH2] (H-Y[Aib]EGTFISDLSI[Aib]K([Sar-Sar-Sar-γGlu-C18 diacid])DRIHQ[Aib]EFIEWLLAQGPSSGAPPPS-NH2) | 86 ± 2 | 100 ± 0 | 1.92 ± 0.03 | 83 ± 1 | 100 ± 0 | 1.94 ± 0.03 | 100 | > 10000 |
| CC[C@H](C)[C@H](NC(=O)[C@H](CCCNC(=N)N)NC(=O)[C@H](CC(=O)O)NC(=O)[C@H](CCCCNC(=O)COCCOCCNC(=O)COCCOCCNC(=O)CC[C@H](NC(=O)CCCCCCCCCCCCCCCCCCC(=O)O)C(=O)O)NC(=O)C(C)(C)NC(=O)[C@@H](NC(=O)[C@H](CO)NC(=O)[C@H](CC(C)C)NC(=O)[C@H](CC(=O)O)NC(=O)[C@H](CO)NC(=O)[C@@H](NC(=O)[C@H](Cc1ccccc1)NC(=O)[C@@H](NC(=O)CNC(=O)[C@H](CCC(=O)O)NC(=O)C(C)(C)NC(=O)[C@@H](N)Cc1ccc(O)cc1)[C@@H](C)O)[C@@H](C)CC)[C@@H](C)CC)C(=O)N[C@@H](Cc1c[nH]cn1)C(=O)N[C@@H](CCC(N)=O)C(=O)NC(C)(C)C(=O)N[C@@H](CCC(=O)O)C(=O)N[C@@H](Cc1ccccc1)C(=O)N[C@H](C(=O)N[C@@H](CCC(=O)O)C(=O)N[C@@H](Cc1c[nH]c2ccccc12)C(=O)N[C@@H](CC(C)C)C(=O)N[C@@H](CC(C)C)C(=O)N[C@@H](C)C(=O)N[C@@H](CCC(N)=O)C(=O)NCC(=O)N1CCC[C@H]1C(=O)N[C@@H](CO)C(=O)N[C@@H](CO)C(=O)NCC(=O)N[C@@H](C)C(=O)N1CCC[C@H]1C(=O)N1CCC[C@H]1C(=O)N1CCC[C@H]1C(=O)N[C@@H](CO)C(N)=O)[C@@H](C)CC [SEQ ID NO: 7, H2N-Y-Aib-E-G-T-F-I-S-D-I-S-I-Aib-K[{AEEA}2-gGlu-C20OH]-D-R-I-H-Q-Aib-E-F-I-E-W-I-L-A-Q-G-P-S-S-G-A-P-P-P-S-NH2] (H-Y[Aib]EGTFISDLSI[Aib]K([AEEA-AEEA-γGlu-C20 diacid])DRIHQ[Aib]EFIEWLLAQGPSSGAPPPS-NH2) | 85 ± 2 | 100 ± 0 | 2.06 ± 0.03 | 73 ± 4 | 100 ± 0 | 2.04 ± 0.02 | 200 | > 10000 |
